Laboratory results reported in patent US10980781B2, “6-amino-2,4-dihydropyrano [2,3-c] pyrazoles and methods of use” (Purdue Research Foundation, priority 2017, dated 2021).

Target: USP7 (Homo sapiens (Human), UniProt Q93009)
Assay: USP7 inhibition assay with Ub-Rho 110 substrate (fluorescence progress curves)
Assay type: biochemical
Conditions: for inhibition at 100 µM / % inhibition @100 μM: 100 μM compound, 1 nM USP7, 200 nM Ub-Rho 110, 3% DMSO, triplicate; for IC50: 11 compound concentrations, two-fold serial dilutions
Method: Each assay was measured in triplicate. […] All reactions contained a final concentration of 3% DMSO. […] The percent inhibition was calculated using Equation (1).
The assay design was identical to as described above. The percent inhibition was calculated using Equation 1 and fit to Equation 2 by use of the Enzyme Kinetics Module of Sigma Plot (v13:Systat Software Inc.), to determine the IC50 value.

Chain of USP7 (Q93009 whole entry): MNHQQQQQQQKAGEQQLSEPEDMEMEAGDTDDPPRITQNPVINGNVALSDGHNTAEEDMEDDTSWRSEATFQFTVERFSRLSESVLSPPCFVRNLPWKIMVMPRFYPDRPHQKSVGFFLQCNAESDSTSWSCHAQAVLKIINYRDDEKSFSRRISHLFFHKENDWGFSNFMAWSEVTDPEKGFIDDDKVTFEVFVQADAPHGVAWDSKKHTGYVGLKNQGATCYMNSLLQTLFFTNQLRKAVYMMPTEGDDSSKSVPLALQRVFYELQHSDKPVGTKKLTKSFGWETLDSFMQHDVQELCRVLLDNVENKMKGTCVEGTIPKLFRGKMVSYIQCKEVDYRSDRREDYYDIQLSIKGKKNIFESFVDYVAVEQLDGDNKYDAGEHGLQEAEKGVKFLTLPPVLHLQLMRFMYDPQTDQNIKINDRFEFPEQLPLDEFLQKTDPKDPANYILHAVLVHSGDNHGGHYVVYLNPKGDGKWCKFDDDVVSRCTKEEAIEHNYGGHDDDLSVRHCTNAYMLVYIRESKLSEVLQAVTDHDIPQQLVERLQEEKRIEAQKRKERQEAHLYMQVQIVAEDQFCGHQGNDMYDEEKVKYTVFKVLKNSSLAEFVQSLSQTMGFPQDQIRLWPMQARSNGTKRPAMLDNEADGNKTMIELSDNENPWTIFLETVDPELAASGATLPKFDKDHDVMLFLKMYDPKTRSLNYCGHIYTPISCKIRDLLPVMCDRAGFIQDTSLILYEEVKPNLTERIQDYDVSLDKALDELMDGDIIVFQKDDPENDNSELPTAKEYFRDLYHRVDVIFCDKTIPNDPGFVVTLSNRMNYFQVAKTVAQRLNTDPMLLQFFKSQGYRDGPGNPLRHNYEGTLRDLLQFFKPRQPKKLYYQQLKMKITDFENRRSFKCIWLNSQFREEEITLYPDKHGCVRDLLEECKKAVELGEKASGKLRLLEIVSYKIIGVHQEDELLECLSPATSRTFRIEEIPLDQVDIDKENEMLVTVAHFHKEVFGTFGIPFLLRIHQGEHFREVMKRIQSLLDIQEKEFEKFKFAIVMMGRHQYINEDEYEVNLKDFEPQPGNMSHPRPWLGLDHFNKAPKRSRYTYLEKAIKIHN

SMILES	inhibition at 100 µM [%]	IC50 (1 nM USP7, 200 nM Ub-Rho 110) [µM]	% inhibition @100 μM [%]	inhibition at 150 µM (tested at 150 μM compound, 1 nM USP7, 200 nM Ub-Rho 110) [%]
N#CC1=C(N)Oc2n[nH]c(-c3cccs3)c2C1c1ccc([N+](=O)[O-])cc1 (racemic) [Compound 6g, 6-Amino-4-(4-nitrophenyl)-3-(thiophen-2-yl)-2,4-dihydropyrano[2,3-c]pyrazole-5-carbonitrile]	57 ± 2	33 ± 5		
C#CCOc1ccc(C2C(C#N)=C(N)Oc3n[nH]c(-c4cccs4)c32)cc1Br (racemic) [Compound 6n, 6-Amino-4-(3-bromo-4-(prop-2-yn-1-yloxy)phenyl)-3-(thiophen-2-yl)-2,4-dihydropyrano[2,3-c]pyrazole-5-carbonitrile]	84 ± 2	4.5 ± 0.6		
N#CC1=C(N)Oc2n[nH]c(-c3cccs3)c2C1c1ccc2c(c1)CCO2 (racemic) [Compound 6o, 6-Amino-4-(2,3-dihydrobenzofuran-5-yl)-3-(thiophen-2-yl)-2,4-dihydropyrano [2,3-c]pyrazole-5-carbonitrile]	45 ± 9	13 ± 3		
N#CC1=C(N)Oc2n[nH]c(-c3cccs3)c2C1c1ccc(O)c(C(F)(F)F)c1 (racemic) [Compound 6q, 6-Amino-4-(4-hydroxy-3-(trifluoromethyl)phenyl)-3-(thiophen-2-yl)-2,4-dihydropyrano[2,3-c]pyrazole-5-carbonitrile]	92 ± 2	11 ± 0.7		
COc1cc(C)c(C2C(C#N)=C(N)Oc3n[nH]c(-c4cccs4)c32)cc1C(C)C (racemic) [Compound 6r, 6-Amino-4-(5-isopropyl-4-methoxy-2-methylphenyl)-3-(thiophen-2-yl)-2,4-dihydropyrano[2,3-c]pyrazole-5-carbonitrile]	95 ± 4	1.4 ± 0.2		
COc1ccc(C2C(C#N)=C(N)Oc3n[nH]c(-c4cccs4)c32)cc1F (racemic) [Compound 6s, 6-Amino-4-(3-fluoro-4-methoxyphenyl)-3-(thiophen-2-yl)-2,4-dihydropyrano [2,3-c]pyrazole-5-carbonitrile]	32 ± 13	7 ± 2		
COc1ccc(C2C(C#N)=C(N)Oc3n[nH]c(-c4cccs4)c32)cc1Cl (racemic) [Compound 6t, 6-Amino-4-(3-chloro-4-methoxyphenyl)-3-(thiophen-2-yl)-2,4-dihydropyrano [2,3-c]pyrazole-5-carbonitrile]	55 ± 3	7 ± 2		
COc1ccc(C2C(C#N)=C(N)Oc3n[nH]c(-c4cccs4)c32)cc1I (racemic) [Compound 6u, 6-Amino-4-(3-iodo-4-methoxyphenyl)-3-(thiophen-2-yl)-2,4-dihydropyrano [2,3-c]pyrazole-5-carbonitrile]	85 ± 1	1.8 ± 0.1		
N#CC1=C(N)Oc2n[nH]c(-c3cccs3)c2C1c1ccc(O)c(C(F)(F)F)c1 (racemic) [Compound 6v, 6-Amino-4-(4-hydroxy-3-(trifluoromethyl)phenyl)-3-(thiophen-2-yl)-2,4-dihydropyrano[2,3-c]pyrazole-5-carbonitrile]		0.75 ± 0.06	93 ± 4	
COc1ccc(C2C(C#N)=C(N)Oc3n[nH]c(-c4ccsc4)c32)cc1Br (racemic) [Compound 7a, 6-Amino-4-(3-bromo-4-methoxyphenyl)-3-(thiophen-3-yl)-2,4-dihydropyrano [2,3-c]pyrazole-5-carbonitrile]	72 ± 4	8.1 ± 1		
COc1ccc(C2C(C#N)=C(N)Oc3n[nH]c(-c4ccsc4)c32)cc1I (racemic) [Compound 7b, 6-Amino-4-(3-iodo-4-methoxyphenyl)-3-(thiophen-3-yl)-2,4-dihydropyrano [2,3-c]pyrazole-5-carbonitrile]	71 ± 3	5.6 ± 0.7		
COc1ccc(C2C(C#N)=C(N)Oc3n[nH]c(-c4ccccn4)c32)cc1Br (racemic) [Compound 7c, 6-Amino-4-(3-bromo-4-methoxyphenyl)-3-(pyridin-2-yl)-2,4-dihydropyrano [2,3-c]pyrazole-5-carbonitrile]	85 ± 2	7.9 ± 0.4		
COc1ccc(C2C(C#N)=C(N)Oc3n[nH]c(-c4ccccn4)c32)cc1I (racemic) [Compound 7d, 6-Amino-4-(3-iodo-4-methoxyphenyl)-3-(pyridin-2-yl)-2,4-dihydropyrano [2,3-c]pyrazole-5-carbonitrile]		4.4		89 ± 2
COc1ccc(C2C(C#N)=C(N)Oc3n[nH]c(-c4cccnc4)c32)cc1Br (racemic) [Compound 7e, 6-Amino-4-(3-bromo-4-methoxyphenyl)-3-(pyridin-3-yl)-2,4-dihydropyrano [2,3-c]pyrazole-5-carbonitrile]	82 ± 9	24 ± 5		
COc1ccc(C2C(C#N)=C(N)Oc3n[nH]c(-c4cccnc4)c32)cc1I (racemic) [Compound 7f, 6-Amino-4-(3-iodo-4-methoxyphenyl)-3-(pyridin-3-yl)-2,4-dihydropyrano [2,3-c]pyrazole-5-carbonitrile]	83 ± 3	7.7 ± 0.9		
COc1ccc(C2C(C#N)=C(N)Oc3n[nH]c(-c4ccc(Cl)cc4)c32)cc1Br (racemic) [Compound 7h, 6-Amino-4-(3-bromo-4-methoxyphenyl)-3-(4-chlorophenyl)-2,4-dihydropyrano [2,3-c]pyrazole-5-carbonitrile]	66 ± 3	7.5 ± 0.9		

SMILES	inhibition at 100 µM [%]	IC50 (1 nM USP7, 200 nM Ub-Rho 110) [µM]	% inhibition @100 μM [%]	inhibition at 150 µM (tested at 150 μM compound, 1 nM USP7, 200 nM Ub-Rho 110) [%]
COc1ccc(C2C(C#N)=C(N)Oc3n[nH]c(-c4ccn(C)c4)c32)cc1Br (racemic) [Compound 7l, 6-Amino-4-(3-bromo-4-methoxyphenyl)-3-(1-methyl-1H-pyrrol-3-yl)-2,4-dihydropyrano[2,3-c]pyrazole-5-carbonitrile]	88 ± 0.09	1.91 ± 0.8		
COc1ccc(C2C(C#N)=C(N)Oc3n[nH]c(-c4ccn(C)c4)c32)cc1I (racemic) [Compound 7m, 6-Amino-4-(3-iodo-4-methoxyphenyl)-3-(1-methyl-1H-pyrrol-3-yl)-2,4-dihydropyrano[2,3-c]pyrazole-5-carbonitrile]	89 ± 1	1.31 ± 0.06		
COc1ccc(C2C(C#N)=C(N)Oc3n[nH]c(-c4cccs4)c32)cc1Br (centres unmarked) [Compound 6a, 6-Amino-4-(3-bromo-4-methoxyphenyl)-3-(thiophen-2-yl)-2,4-dihydropyrano [2,3-c]pyrazole-5-carbonitrile]	72 ± 3			
COc1ccc(C2C(C#N)=C(N)Oc3n[nH]c(-c4cccs4)c32)cc1 (centres unmarked) [Compound 6b, 6-Amino-4-(4-methoxyphenyl)-3-(thiophen-2-yl)-2,4-dihydropyrano [2,3-c]pyrazole-5-carbonitrile]	10 ± 7			
N#CC1=C(N)Oc2n[nH]c(-c3cccs3)c2C1c1cccc(Br)c1 (centres unmarked) [Compound 6c, 6-Amino-4-(3-bromophenyl)-3-(thiophen-2-yl)-2,4-dihydropyrano[2,3-c]pyrazole-5-carbonitrile]	0			
N#CC1=C(N)Oc2n[nH]c(-c3cccs3)c2C1c1ccc(O)cc1 (centres unmarked) [Compound 6d, 6-Amino-4-(4-hydroxyphenyl)-3-(thiophen-2-yl)-2,4-dihydropyrano [2,3-c]pyrazole-5-carbonitrile]	0			
Cc1ccc(C2C(C#N)=C(N)Oc3n[nH]c(-c4cccs4)c32)cc1 (centres unmarked) [Compound 6e, 6-Amino-3-(thiophen-2-yl)-4-(p-tolyl)-2,4-dihydropyrano [2,3-c]pyrazole-5-carbonitrile]	0			
N#CC1=C(N)Oc2n[nH]c(-c3cccs3)c2C1c1ccc(Cl)cc1 (centres unmarked) [Compound 6f, 6-Amino-4-(4-chlorophenyl)-3-(thiophen-2-yl)-2,4-dihydropyrano[2,3-c]pyrazole-5-carbonitrile]	31 ± 6			
N#CC1=C(N)Oc2n[nH]c(-c3cccs3)c2C1c1ccc2c(c1)-c1ccccc1C2 (centres unmarked) [Compound 6h, 6-amino-4-(9H-fluoren-3-yl)-3-(thiophen-2-yl)-2,4-dihydropyrano [2,3-c]pyrazole-5-carbonitrile]	38 ± 6			
C=CCN1CCc2ccc(C3C(C#N)=C(N)Oc4n[nH]c(-c5cccs5)c43)cc21 (centres unmarked) [Compound 6i, 4-(1-Allylindolin-6-yl)-6-amino-3-(thiophen-2-yl)-2,4-dihydropyrano[2,3-c]pyrazole-5-carbonitrile]	63 ± 1			
N#CC1=C(N)Oc2n[nH]c(-c3cccs3)c2C1c1cc(Br)c(OCc2ccccc2)c(Br)c1 (centres unmarked) [Compound 6l, 6-amino-4-(4-(benzyloxy)-3,5-dibromophenyl)-3-(thiophen-2-yl)-2,4-dihydropyrano[2,3-c]pyrazole-5-carbonitrile]	26 ± 3			
CCCOc1ccc(C2C(C#N)=C(N)Oc3n[nH]c(-c4cccs4)c32)cc1Br (centres unmarked) [Compound 6m, 6-Amino-4-(3-bromo-4-propoxyphenyl)-3-(thiophen-2-yl)-2,4-dihydropyrano [2,3-c]pyrazole-5-carbonitrile]	32 ± 5			
N#CC1=C(N)Oc2n[nH]c(-c3cccs3)c2C1c1ccc(N=[N+]=[N-])c(I)c1 (centres unmarked) [Compound 6p, 6-Amino-4-(4-azido-3-iodophenyl)-3-(thiophen-2-yl)-2,4-dihydropyrano[2,3-c]pyrazole-5-carbonitrile]	62 ± 20			
Cc1ccc(C2C(C#N)=C(N)Oc3n[nH]c(-c4ccc(Cl)cc4)c32)cc1C (centres unmarked) [Compound 7g, 6-Amino-3-(4-chlorophenyl)-4-(3,4-dimethylphenyl)-2,4-dihydropyrano[2,3-c]pyrazole-5-carbonitrile]	34 ± 6			
COc1ccc(C2C(C#N)=C(N)Oc3n[nH]c(-c4ccc(Cl)cc4)c32)cc1I (centres unmarked) [Compound 7i, 6-Amino-3-(4-chlorophenyl)-4-(3-iodo-4-methoxyphenyl)-2,4-dihydropyrano [2,3-c]pyrazole-5-carbonitrilem]		15 ± 2	69 ± 3	
